Numbers after ± are expanded uncertainties.
Key:
[1] = 298.15 K; 101.33 kPa; Liquid; Vibrating tube method
[2] = refractive index (Na D-line) (dimensionless); conditions: 298.15 K; 101.33 kPa; Liquid; Standard Abbe refractometry
[3] = xn = mol fraction of the nth substance listed; conditions: 298.15 K, 101 kPa, Liquid, Vibrating tube method

Compound: CCOS(=O)(=O)[O-].CCn1cc[n+](C)c1 [1-ethyl-3-methylimidazolium ethyl sulfate]
- mass density [1]: 1237.23 ± 0.43 kg/m3
- refractive index [2]: 1.50591 ± 0.0004

Compound: CCOS(=O)(=O)[O-].CCn1cc[n+](C)c1 [1-ethyl-3-methylimidazolium ethyl sulfate] + Cc1ccccc1C
- mass density ([3]; x2 = 0.142): 1207.74 ± 1.5 kg/m3

Compound: CCOS(=O)(=O)[O-].CCn1cc[n+](C)c1 [1-ethyl-3-methylimidazolium ethyl sulfate] + Cc1ccc(C)cc1
- mass density ([3]; x2 = 0.123): 1210.97 ± 1.5 kg/m3

Compound: CCOS(=O)(=O)[O-].CCn1cc[n+](C)c1 [1-ethyl-3-methylimidazolium ethyl sulfate] + CCCCCC
- mass density ([3]; x2 = 0.015): 1234.45 ± 1.5 kg/m3

Compound: CCOS(=O)(=O)[O-].CCn1cc[n+](C)c1 [1-ethyl-3-methylimidazolium ethyl sulfate] + Cc1cccc(C)c1
- mass density ([3]; x2 = 0.119): 1212.69 ± 1.5 kg/m3

Reference: the NIST ThermoML archive (doi:10.1016/j.fluid.2011.04.001)
